Source: paper PMC2728345 (Toxicology and applied pharmacology, 2009)
Numbering of substitutions follows the chain as printed. “Also recorded” adds a separate entry of the source. Read-outs that look alike come from different tables or passages of the source.

What was measured:
[1] = target: T1, carboxylesterase HCE2 (Homo sapiens, UniProt O00748); conditions: Tris-HCl buffer pH 8.0; ref Nishi et al. (2006); cited from earlier work
[2] = target: T2, carboxylesterase HCE1 (Homo sapiens, UniProt P23141); experiment: Hydrolysis of pyrethroids by recombinant HCE1; format: in vitro ADME; conditions: recombinant HCE1 vs HCE2 lysates, Tris-HCl pH 7.4
T2 sequence (P23141 18-567): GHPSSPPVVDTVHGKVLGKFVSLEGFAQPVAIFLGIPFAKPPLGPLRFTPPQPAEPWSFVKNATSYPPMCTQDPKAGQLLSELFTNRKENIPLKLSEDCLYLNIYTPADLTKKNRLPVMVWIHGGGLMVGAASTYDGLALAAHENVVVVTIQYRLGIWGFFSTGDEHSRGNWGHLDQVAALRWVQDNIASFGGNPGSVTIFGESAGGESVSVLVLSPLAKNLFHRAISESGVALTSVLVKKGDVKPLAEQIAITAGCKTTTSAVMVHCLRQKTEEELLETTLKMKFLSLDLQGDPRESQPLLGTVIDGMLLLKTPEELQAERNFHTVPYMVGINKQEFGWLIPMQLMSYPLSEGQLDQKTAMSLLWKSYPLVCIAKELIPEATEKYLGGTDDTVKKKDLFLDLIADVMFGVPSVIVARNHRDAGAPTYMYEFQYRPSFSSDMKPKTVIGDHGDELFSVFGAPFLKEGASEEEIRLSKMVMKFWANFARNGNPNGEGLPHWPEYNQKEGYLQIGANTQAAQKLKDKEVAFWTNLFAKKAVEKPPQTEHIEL

[3] = 50 µg protein, pyrethroid 200 µM mixed with equal volume, Tris-HCl pH 7.4, 37°C
[4] = test system: rats or mice; conditions: in vivo, po; cited from earlier work
[5] = target: T3, human PXR (Homo sapiens, UniProt O75469); experiment: Activation of human PXR in hPXR-HRE cells transfected with HCE1, HCE2 or vector; conditions: 10 µM; for effect of carboxylesterase cotransfection on PXR activation: hPXR-HRE cells transfected with HCE1 or HCE2 vs vector; for decrease in PXR activation, HCE1 versus HCE2 cotransfection: hPXR-HRE cells
T3 sequence (O75469 1-434): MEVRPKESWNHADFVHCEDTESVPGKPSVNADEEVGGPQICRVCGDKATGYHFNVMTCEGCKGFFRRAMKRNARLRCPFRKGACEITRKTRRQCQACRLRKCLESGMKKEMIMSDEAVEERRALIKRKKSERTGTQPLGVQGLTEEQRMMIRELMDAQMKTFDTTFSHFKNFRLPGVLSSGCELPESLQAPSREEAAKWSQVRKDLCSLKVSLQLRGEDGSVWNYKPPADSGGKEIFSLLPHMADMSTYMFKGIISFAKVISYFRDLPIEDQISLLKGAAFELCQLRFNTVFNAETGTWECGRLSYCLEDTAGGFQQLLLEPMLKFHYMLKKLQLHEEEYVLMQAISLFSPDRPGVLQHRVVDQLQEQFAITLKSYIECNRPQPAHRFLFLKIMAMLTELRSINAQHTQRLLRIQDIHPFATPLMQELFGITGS

[6] = target: T1, carboxylesterase HCE2; experiment: Hydrolysis of pyrethroids by recombinant HCE2; format: in vitro ADME; conditions: recombinant HCE2 vs HCE1 lysates, Tris-HCl pH 7.4
[7] = target: T4, human PXR variant S208F (Homo sapiens, UniProt O75469, S208F)
T4 sequence (O75469 1-434 S208F): T3 sequence (O75469 1-434) with S208F

[8] = target: T3, human PXR; experiment: Activation of human PXR in stable line hPXR-HRE; conditions: 10 µM, 24 h, ratio over DMSO
[9] = test system: CYP3A4; experiment: CYP3A4 expression in human primary hepatocytes; conditions: 10 µM, 24 h
[10] = target: T4, human PXR variant S208F; conditions: HepG2 cotransfection, 10 µM, 24 h; words: compared with wild-type PXR
[11] = test system: HCE2; experiment: HCE2 expression in human primary hepatocytes; format: cell-based; conditions: 10 µM, 24 h
[12] = target: T5, human PXR variant L412I (Homo sapiens, UniProt O75469, L412I); conditions: HepG2 cotransfection, 10 µM, 24 h
T5 sequence (O75469 1-434 L412I): T3 sequence (O75469 1-434) with L412I

T1 sequence (O00748 27-559): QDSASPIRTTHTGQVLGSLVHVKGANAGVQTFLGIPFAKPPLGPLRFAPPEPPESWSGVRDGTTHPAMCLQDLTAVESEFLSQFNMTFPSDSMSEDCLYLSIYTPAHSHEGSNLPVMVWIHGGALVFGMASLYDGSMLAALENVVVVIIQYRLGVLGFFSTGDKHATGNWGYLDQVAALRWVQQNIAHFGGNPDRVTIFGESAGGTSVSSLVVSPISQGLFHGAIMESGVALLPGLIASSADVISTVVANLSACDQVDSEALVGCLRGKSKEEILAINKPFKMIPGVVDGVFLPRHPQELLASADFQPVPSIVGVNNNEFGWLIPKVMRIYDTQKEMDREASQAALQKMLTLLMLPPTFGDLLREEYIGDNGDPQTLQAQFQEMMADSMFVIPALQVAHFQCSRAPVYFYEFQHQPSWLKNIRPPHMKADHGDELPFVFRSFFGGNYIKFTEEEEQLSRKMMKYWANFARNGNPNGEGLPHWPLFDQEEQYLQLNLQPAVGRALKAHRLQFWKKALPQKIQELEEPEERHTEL

Compound	selective hydrolysis HCE2 vs HCE1 (literature) [1]	preference for hydrolysis by HCE1 over HCE2 (words) [2]	hydrolysis by pooled human liver microsomes (rate group / extent, in words) [3]	LD50 [4] [mg/kg]	effect of carboxylesterase cotransfection on PXR activation [5]	decrease in PXR activation, HCE1 versus HCE2 cotransfection [5]	preference for hydrolysis by HCE2 over HCE1 [6]	activation of PXR variant S208F [7] [fold]	activation of human PXR [8]	CYP3A4 protein (Western blotting) [9]	activation of PXR variant S208F [10]	HCE2 protein (Western blotting) [11]	activation of PXR variant L412I compared with wild-type PXR [12]
CC1(C)[C@H](C(=O)O[C@H](C#N)c2cccc(Oc3ccccc3)c2)[C@@H]1C=C(Br)Br [Deltamethrin]	better substrate of HCE2	much more active than HCE2; also recorded: preferably hydrolyzed by HCE1	high rate	535	markedly decreased	much more decreases	–	–	–	–	–	–	–
CC1(C)C(C=C(Cl)Cl)C1C(=O)OC(C#N)c1ccc(F)c(Oc2ccccc2)c1 (stereo not shown) [Baythroid]	–	–	moderate rate	–	–	–	HCE2 preferably hydrolyzed	10.6	–	–	–	–	–
CC1(C)[C@H](C(=O)O[C@H](C#N)c2cccc(Oc3ccccc3)c2)[C@@H]1/C=C(\Cl)C(F)(F)F (racemic) [lambda-Cyhalothrin]	–	HCE1 preferably hydrolyzed; also recorded: much more active than HCE2	moderate rate	56	markedly decreased	much more decreases	–	–	stronger activator of human PXR	significant increase	no differences	but not HCE1 or HCE2 protein	less extent than the wild-type PXR
